“And” between values parts separate entries of the source, which are not always exact repeats. Identical values can stand only once. Like-named read-outs stand apart in the source and are kept apart here.
Legend:
[1] = test system: Trypanosoma brucei brucei 427 cells; test: T. brucei culture and assay (PrestoBlue); assay type: cell-based; details: for IC50: Trypanosoma brucei
[2] = test system: Leishmania amazonensis promastigotes expressing beta-lactamase; test: microbe, parasite or virus in culture; assay type: cell-based; details: Leishmania amazonensis, read-out: IC50 L. amaz.
Description: Leishmania amazonensis promastigotes expressing beta-lactamase (Buckner et al., Am. J. Trop. Med. Hyg. 72 (2005) 600-605. doi:72/5/600 [pii]) were cultured in RPMI supplemented with 10% fetal calf serum and 1% pen-strep-glut solution (Sigma) at 27° C. Stationary phase promastigotes were adjusted in fresh media, treated with compounds, and incubated at 37° C. At 24 hours, 100 uL of cultures was added to 50 uL of the CellTiter Glo® solution. Luminescence readings were taken with a spectrophotometer and used to calculate inhibition.

[3] = test system: rat skeletal muscle cell line, L6; test: cells; assay type: cell-based; details: Rattus norvegicus; Table 1; read-out: IC50 Toxicity (L6)
Description: Cells were maintained in high glucose DMEM obtained from HyClone Laboratories (Logan, Utah) and supplemented with FCS and P/S at the same concentrations used for parasite culture. Cells were passaged every 3-4 days and maintained in a 37° C. humidified incubator in an atmosphere of 5% CO2. For assays. cells were detached, counted using a hemocytometer, and adjusted using fresh media to deliver 5×10^3 cells per well (90 μL) in black walled, flat clear bottom 96-well microtiter plates. After 3 h incubation for attachment, compounds diluted in culture medium were added (10 μL) to triplicate wells. Positive controls (cells treated with podophyllotoxin (Sigma, St. Louis, Mo.)), negative controls (untreated cells), solvent controls (DMSO) and media blanks were included on each plate. Following incubation for 71.5 h, 11 μL of PrestoBlue was added into each well.

[4] = test system: Trypanosoma cruzi Tulahuen cells expressing beta-galactosidase; test: T. cruzi intracellular assay (beta-galactosidase, L6 host cells); details: for IC50: Trypanosoma cruzi, TULAHUEN
[5] = Table 1, mean of 2(+) independent trials, read-out: IC50 T. brucei
[6] = read-out: IC50 T. cruzi, Table 1, intracellular assay, mean of 2(+) trials (^c one trial)
[7] = read-out: IC50 T. cruzi, Table 2, intracellular assay, mean of 2(+) independent trials

Compound	IC50 [1, 5]	IC50 [2]	IC50 [3]	IC50 [4, 6]	further results
CC(=O)N1/C(=C\c2ccccc2O)C(=O)c2ccccc21 [AA3A]	> 50 µM	< 1 µM	> 200 µM	> 50 µM	IC50 [4, 7]: > 50 µM
CC(=O)N1/C(=C\c2ccc[nH]2)C(=O)c2ccccc21 [AA5A]	26.3 µM	< 1 µM	39.8 µM	33.5 µM	IC50 [4, 7]: 33.5 µM
O=C1/C(=C/c2ccc[nH]2)Nc2ccccc21 [AA5]	49.3 µM	–	39.7 µM	27.8 µM	–
O=C1/C(=C/c2ccccc2)Nc2ccccc21 [AA8]	11.7 µM	< 1 µM	> 100 µM	16.8 µM	IC50 [4, 7]: 16.8 µM
O=C1/C(=C/c2cccs2)Nc2ccccc21 [AA9]	> 50 µM	< 1 µM	> 200 µM	> 50 µM	IC50 [4, 7]: > 50 µM
O=C1/C(=C/c2ccccc2Cl)Nc2ccccc21 [AA11]	> 50 µM	1.86 µM	> 200 µM	> 50 µM	IC50 ([4]; read-out: IC50 T. cruzi (footnote c: value obtained from one trial), Table 2, one trial): > 50 µM
O=C1/C(=C/c2ccccc2Cl)Oc2ccccc21 [Aurone 3a, (Z)-2-(2-chlorobenzylidene)benzofuran-3(2H)-one]	–	–	–	–	selectivity for T. brucei (L6/Tb) [1]: 21.02; IC50 ([1]; read-out: T. brucei IC50 dose): 11.3 µM
O=C1/C(=C/c2ccc(Cl)cc2)Oc2ccccc21 [Aurone 3c, (Z)-2-(4-chlorobenzylidene)benzofuran-3(2H)-one]	–	–	–	–	IC50 ([4]; read-out: T. cruzi IC50 dose): < 10 µM
O=C1/C(=C/c2cccc(I)c2)Oc2ccccc21 [Aurone 4b, (Z)-2-(3-iodobenzylidene)benzofuran-3(2H)-one]	–	–	–	–	IC50 ([1]; read-out: T. brucei IC50 dose): > 50 µM; IC50 ([4]; read-out: T. cruzi IC50 dose): < 10 µM
O=C1/C(=C/c2cccc(Br)c2)Oc2ccccc21 [Aurone 5b, (Z)-2-(3-bromobenzylidene)benzofuran-3(2H)-one]	–	–	–	–	IC50 ([1]; read-out: T. brucei IC50 dose): > 50 µM; IC50 ([4]; read-out: T. cruzi IC50 dose): < 10 µM
O=C1/C(=C/c2ccc(C(F)(F)F)cc2)Oc2ccccc21 [Aurone 6c, (Z)-2-(4-(trifluoromethyl)benzylidene)benzofuran-3(2H)-one]	–	–	–	–	IC50 ([4]; read-out: T. cruzi IC50 dose): < 10 µM
N#Cc1ccc(/C=C2\Oc3ccccc3C2=O)cc1 [Aurone 7c]	–	–	–	–	selectivity for T. brucei (L6/Tb) [1]: 29.49 and 29.46; IC50 ([1]; read-out: T. brucei IC50 dose): 8.12 µM
O=C1/C(=C/c2cccc([N+](=O)[O-])c2)Oc2ccccc21 [Aurone 12a]	–	–	–	–	activity against T. brucei [1]: modest activity; activity against T. cruzi [4]: modest activity
O=C1/C(=C/c2ccc([N+](=O)[O-])cc2)Oc2ccccc21 [Aurone 12b]	–	–	–	–	activity against T. brucei [1]: modest activity; activity against T. cruzi [4]: modest activity
COC(=O)c1ccc(/C=C2\Oc3ccccc3C2=O)cc1 [Aurone 13, Methyl (Z)-4-((3-oxobenzofuran-2(3H)-ylidene)methyl)benzoate]	–	–	–	–	activity against T. brucei [1]: no activity; activity against T. cruzi [4]: no activity
O=C1/C(=C/c2ccc(Br)cc2)Oc2c1ccc(O)c2O [Aurone 1005, (Z)-2-(4-bromobenzylidene)-6,7-dihydroxybenzofuran-3(2H)-one]	48 µM	31.1 µM	> 100 µM	> 50 µM	–
COc1ccc(/C=C2\Oc3ccccc3C2=O)c(OC)c1OC [Aurone 2001]	22.4 µM	13.3 µM	> 100 µM	> 50 µM	–
COc1cc(/C=C2\Oc3ccccc3C2=O)cc(OC)c1OC [Aurone 2002]	> 50 µM	12.6 µM	> 100 µM	> 50 µM	–

— patent publication US20200399238A1, “THERAPEUTIC AURONES” (MIDDLE TENNESSEE STATE UNIVERSITY, priority 2016, published 2020)
